Measured values reported in publication PMC8267647, “Metallacarborane Derivatives Effective against Pseudomonas aeruginosa and Yersinia enterocolitica” (International Journal of Molecular Sciences, 2021).
Read-outs that look alike come from different tables or passages of the source.

What was measured:
BALB/3T3 = assay: Antiproliferative SRB assay; assay type: cell-based, mouse; conditions: SRB method, 72 h of treatment; highest concentration 100 μM; read-out: IC50 72h (95% CI) BALB/3T3
Excerpt: (§1) Rockville, Maryland, USA).

MCF 10A = assay: Antiproliferative SRB assay; assay type: cell-based, human; conditions: SRB method, 72 h of treatment; highest concentration 100 μM; read-out: IC50 72h (95% CI) MCF 10A
Excerpt: as §1

[1] = test system: Pseudomonas aeruginosa strain PCM 2058; assay: Bacterial growth inhibition IC50 in LB medium; assay type: cell-based; conditions: 8-h time point, Luria-Bertani medium, 37 °C; ± SEM; read-out: IC50 for growth inhibition, Pa 2058
Protocol: (§2) Bacterial growth inhibition was measured on a Spark 10 M (Tecan, AT) microplate reader as described previously (Swietnicki et al., 2019). Briefly, a bacterial culture in LB medium grown at 37 °C overnight was diluted 1:100 with a fresh medium and aliquoted into a 96-well plate at 98 μL/well with a multichannel pipette. A 2 μL aliquot of compound serially diluted in DMSO was added in triplicates, the plate was covered with a lid or a transparent plate sealer, and incubated at 37 °C for up to 24 h. Bacterial growth was monitored by following an A600 reading every hour. After the experiment, the data were stored in Excel format, transferred into KaleidaGraph software (Synergy Software, Reading, PA, USA) and the A600 was plotted versus log [Concentration]. The IC50 values were determined by fitting the readings at the 8 h time point to a sigmoidal model of inhibition. Each experiment was repeated at least 3 times to verify the values.

[2] = test system: Pseudomonas aeruginosa strain PCM 499; assay: Bacterial growth inhibition IC50 in LB medium; assay type: cell-based; conditions: 8-h time point, Luria-Bertani medium, 37 °C; ± SEM; read-out: IC50 for growth inhibition, Pa499
Protocol: as §2

[3] = test system: Yersinia enterocolitica strain PCM 2080; assay: Bacterial growth inhibition IC50 in LB medium; assay type: cell-based; conditions: 8-h time point, Luria-Bertani medium, 37 °C; ± SEM; read-out: IC50 for growth inhibition, Ye 2080
Protocol: as §2

[4] = test system: Yersinia enterocolitica strain PCM 2090; assay: Bacterial growth inhibition IC50 in LB medium; assay type: cell-based; conditions: 8-h time point, Luria-Bertani medium, 37 °C; ± SEM; read-out: IC50 for growth inhibition, Ye 2090
Protocol: as §2

[5] = test system: Y. enterocolitica strain PCM 2080 grown in the presence of 200 μM compounds; assay: Cross-resistance generation: IC50 on compound-evolved bacteria; assay type: cell-based, Yersinia enterocolitica; conditions: read-out: Resistance (IC50 value against the selected compound)
Protocol: as §2
The evolution was performed in parallel using blood agar and LB agar plates prepared in-house. Briefly, a 200 μL aliquot of 200 μM compound in PBS was added to a fresh agar plate, spread on the surface, and left to dry in a BSC cabinet for approximately 30 min. After that time, a single colony from an overnight culture on a plate was spread on the surface before the plate was covered with a lid and left at 37 °C to incubate overnight. The procedure was repeated at least nine times for each plate. After the last step, a single colony was selected from a plate and added to a 3 mL aliquot of LB medium. […] Dual selection on different plates was necessary in cases where the growth inhibition was too strong to obtain single colonies on LB agar plates. […] Until then, the colonies were supplied from bacteria grown on the blood agar plates.

[6] = test system: drug-resistant Y. enterocolitica strain 2080; assay: SEM of drug-resistant bacteria; assay type: cell-based, Yersinia enterocolitica; conditions: for bacterial growth seen under SEM: bacteria passaged at least nine times with 200 μM compound; for mechanism of biological activity: from SEM, 200 μM
Protocol: Scanning electron microscopy of Y. enterocolitica was performed at a low accelerating voltage of the primary beam without any coating or heavy-metal contrasting of the samples, as described in previous work. Bacteria were applied onto a polished silicon crystal chip and allowed to adhere for 30 min. The samples were fixed with 2.5% glutaraldehyde in 0.1 M cacodylate buffer for 30 min at 4 °C, then washed in water and dehydrated in a series of methanol solutions (25%-50%-75%-100%-100%) in one-hour steps at 4 °C. Samples underwent critical point drying with methanol exchanged for liquid CO2 in an automatized approach, (CPD300 AUTO, Leica Microsystems, Vienna, Austria) and imaged with a cross-beam scanning electron microscope equipped with a Schottky field-emission cathode (Auriga 60, Carl Zeiss, Oberkochen, Germany) at 0.8 kV accelerating voltage. Thus, the imaging was performed within a mode referred to as the low-voltage, field-emission scanning electron microscopy (LV-FESEM) of nonlabeled, critical point-dried samples.
Figure 3 Scanning electron microscopy of drug-resistant Y. enterocolitica strain 2080. […] After exposure to compound 1 for nine passages, there were only fragments of organic debris visible (B). In the presence of compounds 7 and 3, there were multiple bacteria observed with apparently normal morphology. Scale bars: (A) and (B) 500 nm, (C) and (E) 2.5 μm, (D) and (F) 1 μm.

MRSA = conditions: after 20 passages; cited from earlier work
mammalian cell culture = conditions: cited from earlier work
[7] = test system: zebrafish (Danio rerio) larvae; assay: Danio rerio toxicity assay (modified Fish Embryo Toxicity test); assay type: in vivo; conditions: for mortality (share of the population): 10 μM, day 5 post-exposure; for mortality rate: day 5; for visible morphological deformities: concentrations up to 10 μM
Protocol: To determine acute toxicity of examined compounds modified Fish Embryo Toxicity (FET) test was performed of zebrafish (Danio rerio) according to OECD Test Guideline 236. Briefly, the collected embryos were transferred to a Petri dish with E3 medium (5 mM NaCl, 0.33 mM MgCl2, 0.33 mM CaCl2, 0.17 mM KCl; pH 7.2) and then placed in 24-well plates, 5 embryos per well, 10 per group. Stock solutions of boron cluster compounds were prepared in DMSO. In these experiments, three series of solutions with different concentrations were employed, which were freshly prepared by dissolving stock solutions in the E3 solution each time directly before addition to the wells. The solutions were changed once daily and the embryos were maintained in the incubator at 28.5 °C. Zebrafish embryos were evaluated for developmental abnormalities and viability at 24 h intervals for up to 5 days using a stereomicroscope (Zeiss Axio Vert, ZEISS, Germany). Morphological deformities of the heart, dorsal string, and tail development were measured and compared with the control embryos. Image analysis was performed to determine the percentage of dead and malformed embryos over time using Zeiss software. The experiment was performed in triplicate. Fish were taken from own fish facility of The Centre of Experimental Medicine, Medical University of Lublin. For the experiment AB OMD strain was used.
Figure 4 Toxicity of selected compounds on zebrafish (Danio rerio) larvae. Fish larvae were grown in 6-well plates in the presence of compounds for up to 5 days and the morphological deformities were analyzed from images as described under Materials and Methods. Representative photographs are shown. S, scoliosis; TA, tail autophagy; PE, pericardial edema.
Figure 5 Mortality rates of selected compounds on zebrafish (Danio rerio) larvae. The population size (n = 10) from Figure 4 was followed up to day 5 as described under Materials and Methods. Representative graphs are shown.

[8] = strain PCM 2080 grown with 200 μM compound 1 for at least nine generations
[9] = strain PCM 2080 grown with 200 μM compound 3 for at least nine generations
[10] = strain PCM 2080 grown with 200 μM compound 7 for at least nine generations
[11] = 2 μM, up to day 5 post-exposure
[12] = concentrations lower than 20 μM except 2 μM

Substance “[8-NH2-CHEt2-8′-I-3,3′-Co(1,2-C2B9H10)2] [Compound 8]” has an IC50 (BALB/3T3) of 0.023 µM and an IC50 (MCF 10A) of 0.045 µM.
With “[8-NH2-iso-Bu-8′-I-3,3′-Co(1,2-C2B9H10)2] [Compound 7]” the IC50 [1] was 24.7 ± 8 µM, the IC50 [2] was 58.7 ± 20 µM and the IC50 [3] was 1.8 ± 0.8 µM. It also gave an IC50 [4] of 6.2 ± 0.7 µM, an IC50 [5, 8] greater than 37 µM and an IC50 [5, 9] greater than 100 µM. The IC50 [5, 10] was greater than 100 µM, the IC50 (BALB/3T3) was 0.024 µM and the IC50 (MCF 10A) was 0.115 µM. The “bacterial growth seen under SEM” value [6] was “did not inhibit the growth of bacteria” and the “mechanism of biological activity” value [6] was “blockage of bacterial cell division”.
Substance “[8-NH2-cyclo-C6H11-8′-I-3,3′-Co(1,2-C2B9H10)2] [Compound 9]” has an IC50 (BALB/3T3) of 0.067 µM and an IC50 (MCF 10A) of 0.082 µM.
For “8-ethoxy-8′-iodo derivative of cobalt bis(1,2-dicarbollide) [Compound K121]”, the generation of resistance (MRSA) is listed as “not able to generate resistance”.
For “3,3′-commo-bis[closo-1,2-dicarba-3-cobaltadodecaborate](1-) [COSAN, reference compound]”, the “concentration that reversibly blocks cell growth” value (mammalian cell culture) is given as “above 100 µM”.
“Cs[8-O-cyclo-C6H11-8′-I-3,3′-Co(1,2-C2B9H10)2] [Compound 5]” showed an IC50 [1] of 52.1 ± 15 µM, an IC50 [2] of 52.1 ± 10 µM and an IC50 [3] of 7.5 ± 4 µM. The IC50 [4] was 3.3 ± 1 µM, the IC50 (BALB/3T3) was 11.7 µM and the IC50 (MCF 10A) was 46.3 µM. For the same substance, the “mortality (share of the population)” value [7] was no more than 20%, the morphological deformities ([7]; 20 μM) was “deformities of dorsal string” and the mortality rate ([7]; 20 μM) was 20%. The visible morphological deformities [7] was “did not induce visible deformities”.
For “[8-NH2-n-Bu-8′-I-3,3′-Co(1,2-C2B9H10)2] [Compound 6]”, the IC50 (BALB/3T3) was 0.29 µM.
With “Cs[8-O-CHEt2-8′-I-3,3′-Co(1,2-C2B9H10)2] [Compound 4]” the IC50 [1] was 72 ± 30 µM, the IC50 [2] was 52.9 ± 20 µM and the IC50 [3] was 6.7 ± 2.3 µM. It also gave an IC50 [4] of 5.3 ± 1 µM, an IC50 (BALB/3T3) of 11.3 µM and an IC50 (MCF 10A) of 50 µM. The mortality [7, 11] was “none of the animals died”, the “mortality (share of the population)” value [7] was no more than 20% and the mortality ([7]; 20 μM, day 4) was “lethal to all larvae”. For the same substance, the mortality rate [7, 12] was 20% and the visible morphological deformities [7] was “did not induce visible deformities”.
With “Cs[8-O-n-Bu-8′-I-3,3′-Co(1,2-C2B9H10)2] [Compound 2]” the IC50 [1] was 28 ± 8 µM, the IC50 [2] was 12.1 ± 4 µM and the IC50 [3] was 4.3 ± 1.5 µM. It also gave an IC50 [4] of 2.4 ± 0.7 µM, an IC50 (BALB/3T3) of 3.7 µM and an IC50 (MCF 10A) of 16.1 µM.
“Cs[8,8′-I2-3,3′-Co(1,2-C2B9H10)2] [Compound 1]” showed an IC50 [1] of 28.3 ± 6 µM, an IC50 [2] of 11.4 ± 1 µM and an IC50 [3] of 4.8 ± 3 µM. The IC50 [4] was 2.5 ± 1.4 µM, the IC50 [5, 8] was 2.6 ± 0.2 µM and the IC50 [5, 9] was 4 ± 1 µM. It also gave an IC50 [5, 10] of 3.1 ± 1 µM, an IC50 (BALB/3T3) of 17 µM and an IC50 (MCF 10A) of 59.8 µM. The mortality [7, 11] was “none of the animals died”, the mortality ([7]; 20 μM, day 4) was “lethal to all larvae” and the mortality rate [7, 12] was 20%. For the same substance, the visible morphological deformities [7] was “induced visible morphological deformities”, the “bacterial growth seen under SEM” value [6] was “generally inhibited bacterial growth” and the “mechanism of biological activity” value [6] was “most likely being bactericidal”. For the same substance, the “change of ED50 versus COSAN” value (mammalian cell culture; mammalian cells) was “decreases the ED50 values approximately threefold”.
“Cs[8-O-iso-Bu-8′-I-3,3′-Co(1,2-C2B9H10)2] [Compound 3]” gave an IC50 [1] of 59 ± 30 µM, an IC50 [2] of 16.9 ± 8 µM and an IC50 [3] of 4.2 ± 1.8 µM. The IC50 [4] was 3.4 ± 1 µM, the IC50 [5, 8] was 4.7 ± 1 µM and the IC50 [5, 9] was 10.4 ± 3 µM. It also gave an IC50 [5, 10] of 3.7 ± 1.2 µM, an IC50 (BALB/3T3) of 10.2 µM and an IC50 (MCF 10A) of 52.5 µM. For the same substance, the “bacterial growth seen under SEM” value [6] was “did not inhibit the growth of bacteria” and the “mechanism of biological activity” value [6] was “blockage of bacterial cell division”.
